{"source": "paper PMC8112869", "about": "“Therapeutic inhibition of keratinocyte TRPV3 sensory channel by local anesthetic dyclonine” (eLife, 2021)", "molecular_target": "T1, TRPV3 (Mus musculus, UniProt Q8K424)", "T1 construct": "expressed in transfected cells; host or cells: HEK 293T", "T1 sequence (Q8K424 1-791)": "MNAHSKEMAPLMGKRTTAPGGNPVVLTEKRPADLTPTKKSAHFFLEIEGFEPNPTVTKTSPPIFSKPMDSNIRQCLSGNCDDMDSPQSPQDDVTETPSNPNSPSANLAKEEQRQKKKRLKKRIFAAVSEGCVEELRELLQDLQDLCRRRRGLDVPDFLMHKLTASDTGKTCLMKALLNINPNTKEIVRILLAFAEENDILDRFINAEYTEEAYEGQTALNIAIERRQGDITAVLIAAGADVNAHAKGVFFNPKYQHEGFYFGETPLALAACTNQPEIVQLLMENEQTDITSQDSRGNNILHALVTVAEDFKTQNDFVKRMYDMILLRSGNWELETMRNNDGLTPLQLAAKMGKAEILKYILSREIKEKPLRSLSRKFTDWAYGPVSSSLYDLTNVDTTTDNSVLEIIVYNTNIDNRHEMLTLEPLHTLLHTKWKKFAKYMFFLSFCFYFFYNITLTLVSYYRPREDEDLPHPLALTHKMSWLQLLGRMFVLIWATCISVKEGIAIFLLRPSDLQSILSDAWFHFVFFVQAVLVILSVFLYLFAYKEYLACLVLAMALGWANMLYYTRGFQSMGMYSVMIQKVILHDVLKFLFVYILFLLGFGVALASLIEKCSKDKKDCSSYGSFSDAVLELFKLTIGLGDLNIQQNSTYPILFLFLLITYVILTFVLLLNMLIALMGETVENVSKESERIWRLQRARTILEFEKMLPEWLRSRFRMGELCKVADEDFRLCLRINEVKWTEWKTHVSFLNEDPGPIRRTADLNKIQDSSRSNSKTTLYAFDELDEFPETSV", "assay": "Heat-activated TRPV3 currents (infrared laser temperature jump) in HEK 293T cells", "assay_type": "cell-based", "excerpt": "Conventional whole-cell and excised patch-clamp recording methods were used. For the recombinant expressing system, green fluorescent EGFP was used as a surface marker for gene expression. Recording pipettes were pulled from borosilicate glass capillaries (World Precision Instruments) and fire-polished to a resistance between 2 and 4 MΩ when filled with internal solution containing (in mM) 140 CsCl, 2.0 MgCl2, 5 EGTA, and 10 HEPES, pH 7.4 (adjusted with CsOH). Bath solution contained (in mM): 140 NaCl, 5 KCl, 3 EGTA, and 10 HEPES, pH 7.4 adjusted with NaOH. […] For a subset of recordings, currents were amplified using an Axopatch 200B amplifier (Molecular Devices, Sunnyvale, CA) and recorded through a BNC-2090/MIO acquisition system (National Instruments, Austin, TX) using QStudio developed by Dr. Feng Qin at State University of New York at Buffalo. […] As determined by the conductance tests, the solution around a patch under study was fully controlled by the application of a flow rate of 100 μl/min or greater. […]\nConstant temperature steps were generated by irradiating the tip of an open pipette and using the current of the electrode as the readout for feedback control. […]", "data": [{"smiles": "CCCCOc1ccc(C(=O)CCN2CCCCC2)cc1", "note": "[dyclonine]", "values": [{"measurement": "Hill coefficient nH", "value": "1.9 ± 0.54"}]}]}
